Test system: RAW264.7
Test: Antiinflammatory activity in mouse RAW264.7 cells assessed as inhibition of LPS-induced nitric oxide production preincubated for 2 hrs followed by LPS challenge measured after 24 hrs
Assay type: functional, cell-based

Row | Compound | IC50 [µM]
1 | COc1cc(/C=C/C(=O)CC(=O)/C=C/c2ccc(O)c(OC)c2)ccc1O [CURCUMIN] | 5
2 | C/C=C/C(=O)O[C@H]1C(C)(C)[C@H](CC(=O)OC)[C@]2(C)C(=O)[C@@]1(O)[C@H]1O[C@]13[C@@H]1CC(=O)O[C@@H](c4ccoc4)[C@]1(C)CC[C@H]23 | 3.33
3 | C/C=C/C(=O)O[C@H]1C(C)(C)[C@H](CC(=O)OC)[C@]2(C)C(=O)[C@@]1(O)[C@H]1O[C@@]13C2=CC[C@]1(C)[C@H]3CC(=O)O[C@H]1c1ccoc1 [TRICHINENLIDE B] | 2.85
4 | C/C=C/C(=O)O[C@H]1C(C)(C)[C@H](C(O)C(=O)OC)[C@]2(C)C(=O)[C@@]1(O)[C@H]1O[C@@]13C2=CC[C@]1(C)[C@H]3CC(=O)O[C@H]1c1ccoc1 (some centres undefined) [TRICHINENLIDE C] | 1.88
